{
  "source": "patent US20240158418A1",
  "about": "(C4 Therapeutics, Inc., priority 2021, published 2024)",
  "data": [
    {"molecular_target": "T1, EGFR L858R-T790M (Homo sapiens, UniProt P00533, L858R/T790M)", "T1 construct": "NCI-H1975 (harboring EGFR heterozygous L858R-T790M mutations); host or cells: NCI-H1975", "T1 sequence (P00533 25-1210 T790M/L858R)": "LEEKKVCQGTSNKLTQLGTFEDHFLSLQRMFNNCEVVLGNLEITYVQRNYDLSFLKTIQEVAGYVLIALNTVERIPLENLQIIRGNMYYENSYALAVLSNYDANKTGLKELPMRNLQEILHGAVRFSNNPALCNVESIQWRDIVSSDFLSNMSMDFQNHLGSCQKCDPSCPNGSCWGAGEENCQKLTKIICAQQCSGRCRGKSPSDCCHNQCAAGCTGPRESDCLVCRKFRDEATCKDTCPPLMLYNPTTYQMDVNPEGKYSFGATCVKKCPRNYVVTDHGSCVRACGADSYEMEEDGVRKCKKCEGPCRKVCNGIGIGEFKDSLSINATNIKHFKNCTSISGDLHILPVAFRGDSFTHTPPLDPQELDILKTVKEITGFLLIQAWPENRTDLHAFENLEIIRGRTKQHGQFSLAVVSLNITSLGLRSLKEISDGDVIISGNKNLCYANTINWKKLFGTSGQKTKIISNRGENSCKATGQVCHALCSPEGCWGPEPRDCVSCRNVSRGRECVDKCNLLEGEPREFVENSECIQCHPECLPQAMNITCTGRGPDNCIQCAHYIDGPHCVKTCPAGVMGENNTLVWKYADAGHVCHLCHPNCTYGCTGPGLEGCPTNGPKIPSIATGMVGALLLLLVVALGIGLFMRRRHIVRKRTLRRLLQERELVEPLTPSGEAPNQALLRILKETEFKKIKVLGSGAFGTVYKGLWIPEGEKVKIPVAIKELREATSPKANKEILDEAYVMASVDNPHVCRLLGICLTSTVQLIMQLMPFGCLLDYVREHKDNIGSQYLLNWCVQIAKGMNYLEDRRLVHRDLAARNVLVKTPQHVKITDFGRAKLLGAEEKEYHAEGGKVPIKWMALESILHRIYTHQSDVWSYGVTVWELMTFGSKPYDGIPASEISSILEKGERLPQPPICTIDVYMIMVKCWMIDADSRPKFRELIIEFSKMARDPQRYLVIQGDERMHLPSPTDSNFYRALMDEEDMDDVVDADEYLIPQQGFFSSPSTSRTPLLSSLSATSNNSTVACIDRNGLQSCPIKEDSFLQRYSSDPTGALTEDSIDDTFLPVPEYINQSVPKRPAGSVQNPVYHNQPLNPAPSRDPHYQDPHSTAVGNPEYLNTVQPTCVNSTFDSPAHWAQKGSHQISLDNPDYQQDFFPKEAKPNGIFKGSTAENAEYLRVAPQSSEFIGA", "assay": "EGFR degradation, Total EGFR (L858R-specific) HTRF, NCI-H1975", "assay_type": "cell-based", "details": "Table 9B; NCI-H1975 cells, 6 hours, Total EGFR HTRF; read-out: H1975 EGFR DC50", "outline": "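FRET signal from HTRF kits measured phospho-EGFR at pY1068 or total EGFR after 6 h treatment at 37 °C. Compounds ran as 11-point half-log dilutions from 10 μM in duplicate, in cells in phenol red-free RPMI with 10% FBS. Concentrations giving 50% inhibition or degradation were reported as IC50 or DC50.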", "units": {"DC50": "nM"}, "values": [
      {"smiles": "Cn1nc(N2CCC(=O)NC2=O)c2ccc([C@@H]3CCN(C(=O)CN4CC5(CCN(c6ccc(-c7cc(F)c8c(c7)C(=O)N(C(C(=O)Nc7nccs7)c7ncn9c7CCC9)C8)cc6)CC5)C4)CC3(F)F)cc21", "note": "(stereo partly drawn) [Compound 144, 2-(6,7-dihydro-5H-pyrrolo[1,2-c]imidazol-1-yl)-2-[6-[4-[2-[2-[(4S)-4-[3-(2,4-dioxohexahydropyrimidin-1-yl)-1-methyl-indazol-6-yl]-3,3-difluoro-1-piperidyl]-2-oxo-ethyl]-2,7-diazaspiro[3.5]nonan-7-yl]phenyl]-4-fluoro-1-oxo-isoindolin-2-yl]-N-thiazol-2-yl-acetamide]", "DC50": "< 50"},
      {"smiles": "Cc1cc(C2CCN(C(=O)CN3CCC(c4ccc(NC5CCC(=O)NC5=O)cc4)CC3)CC2)ccc1-c1cc(F)c2c(c1)C(=O)N(C(C(=O)Nc1nccs1)c1ncn3c1CCC3)C2", "note": "(stereo not drawn) [Compound 152, 2-(6,7-dihydro-5H-pyrrolo[1,2-c]imidazol-1-yl)-2-[6-[4-[1-[2-[4-[4-[(2,6-dioxo-3-piperidyl)amino]phenyl]-1-piperidyl]acetyl]-4-piperidyl]-2-methyl-phenyl]-4-fluoro-1-oxo-isoindolin-2-yl]-N-thiazol-2-yl-acetamide]", "DC50": "50 to 150"},
      {"smiles": "Cn1nc(N2CCC(=O)NC2=O)c2ccc(C3CCN(CC(=O)N4CC5(C4)CN(c4ccc(-c6cc(F)c7c(c6)C(=O)N(C(C(=O)Nc6ccccn6)c6ncn8c6CCC8)C7)cc4)C5)C4(CC4)C3)cc21", "note": "(stereo not drawn) [Compound 153, 2-(6,7-dihydro-5H-pyrrolo[1,2-c]imidazol-1-yl)-2-[6-[4-[2-[2-[7-[3-(2,4-dioxohexahydropyrimidin-1-yl)-1-methyl-indazol-6-yl]-4-azaspiro[2.5]octan-4-yl]acetyl]-2,6-diazaspiro[3.3]heptan-6-yl]phenyl]-4-fluoro-1-oxo-isoindolin-2-yl]-N-(2-pyridyl)acetamide]", "DC50": "50 to 150"},
      {"smiles": "Cn1nc(N2CCC(=O)NC2=O)c2ccc(C3CCN(C(=O)C4CC5(C4)CN(c4ccc(-c6cc(F)c7c(c6)C(=O)N(C(C(=O)Nc6nccs6)c6ncn8c6CCC8)C7)cc4)C5)CC3(F)F)cc21", "note": "(stereo not drawn) [Compound 155, 2-(6,7-dihydro-5H-pyrrolo[1,2-c]imidazol-1-yl)-2-[6-[4-[6-[4-[3-(2,4-dioxohexahydropyrimidin-1-yl)-1-methyl-indazol-6-yl]-3,3-difluoro-piperidine-1-carbonyl]-2-azaspiro[3.3]heptan-2-yl]phenyl]-4-fluoro-1-oxo-isoindolin-2-yl]-N-thiazol-2-yl-acetamide]", "DC50": "< 50"},
      {"smiles": "O=C1CCN(c2ccc(N3CCC(O)(CC(=O)N4CC5(C4)CN(c4ccc(-c6cc(F)c7c(c6)C(=O)N(C(C(=O)Nc6nccs6)c6ncn8c6CCC8)C7)cc4)C5)CC3)c(F)c2)C(=O)N1", "note": "(stereo not drawn) [Compound 156, 2-(6,7-dihydro-5H-pyrrolo[1,2-c]imidazol-1-yl)-2-[6-[4-[2-[2-[1-[4-(2,4-dioxohexahydropyrimidin-1-yl)-2-fluoro-phenyl]-4-hydroxy-4-piperidyl]acetyl]-2,6-diazaspiro[3.3]heptan-6-yl]phenyl]-4-fluoro-1-oxo-isoindolin-2-yl]-N-thiazol-2-yl-acetamide]", "DC50": "50 to 150"},
      {"smiles": "O=C1CCC(c2ccc(N3CCC(O)(CC(=O)N4CC5(C4)CN(c4ccc(-c6cc(F)c7c(c6)C(=O)N(C(C(=O)Nc6nccs6)c6ncn8c6CCC8)C7)cc4)C5)CC3)c(F)c2)C(=O)N1", "note": "(stereo not drawn) [Compound 157, 2-(6,7-dihydro-5H-pyrrolo[1,2-c]imidazol-1-yl)-2-(6-(4-(6-(2-(1-(4-(2,6-dioxopiperidin-3-yl)-2-fluorophenyl)-4-hydroxypiperidin-4-yl)acetyl)-2,6-diazaspiro[3.3]heptan-2-yl)phenyl)-4-fluoro-1-oxoisoindolin-2-yl)-N-(thiazol-2-yl)acetamide]", "DC50": "> 150"},
      {"smiles": "C[C@@H]1CC(O)(CC(=O)N2CC3(C2)CN(c2ccc(-c4cc(F)c5c(c4)C(=O)N(C(C(=O)Nc4nccs4)c4ncn6c4CCC6)C5)cc2)C3)C[C@H](C)N1c1ccc(NC2CCC(=O)NC2=O)cc1F", "note": "(stereo partly drawn) [Compound 161, 2-(6,7-dihydro-5H-pyrrolo[1,2-c]imidazol-1-yl)-2-[6-[4-[2-[2-[(2s,6r)-1-[4-[(2,6-dioxo-3-piperidyl)amino]-2-fluoro-phenyl]-4-hydroxy-2,6-dimethyl-4-piperidyl]acetyl]-2,6-diazaspiro[3.3]heptan-6-yl]phenyl]-4-fluoro-1-oxo-isoindolin-2-yl]-N-thiazol-2-yl-acetamide]", "DC50": "< 50"},
      {"smiles": "NC1(CC(=O)N2CC3(C2)CN(c2ccc(-c4cc(F)c5c(c4)C(=O)N(C(C(=O)Nc4nccs4)c4ncn6c4CCC6)C5)cc2)C3)CCN(c2ccc(NC3CCC(=O)NC3=O)cc2F)CC1", "note": "(stereo not drawn) [Compound 162, 2-[6-[4-[2-[2-[4-amino-1-[4-[(2,6-dioxo-3-piperidyl)amino]-2-fluoro-phenyl]-4-piperidyl]acetyl]-2,6-diazaspiro[3.3]heptan-6-yl]phenyl]-4-fluoro-1-oxo-isoindolin-2-yl]-2-(6,7-dihydro-5H-pyrrolo[1,2-c]imidazol-1-yl)-N-thiazol-2-yl-acetamide]", "DC50": "< 50"},
      {"smiles": "O=C1CCN(c2ccc(N3CCC(O)(CC(=O)N4CC5(CCN(c6ccc(-c7cc(F)c8c(c7)C(=O)N(C(C(=O)Nc7nccs7)c7ncn9c7CCC9)C8)cc6)CC5)C4)CC3)c(F)c2)C(=O)N1", "note": "(stereo not drawn) [Compound 163, 2-(6,7-dihydro-5H-pyrrolo[1,2-c]imidazol-1-yl)-2-[6-[4-[2-[2-[1-[4-(2,4-dioxohexahydropyrimidin-1-yl)-2-fluoro-phenyl]-4-hydroxy-4-piperidyl]acetyl]-2,7-diazaspiro[3.5]nonan-7-yl]phenyl]-4-fluoro-1-oxo-isoindolin-2-yl]-N-thiazol-2-yl-acetamide]", "DC50": "< 50"},
      {"smiles": "O=C1CCN(c2ccc(N3CCC(O)(CC(=O)N4CC5(C4)CN(c4ccc(-c6cc(F)c7c(c6)C(=O)N(C(C(=O)Nc6nccs6)c6ncn8c6CCC8)C7)cc4)C5)CC3)c(C(F)(F)F)c2)C(=O)N1", "note": "(stereo not drawn) [Compound 168, 2-(6,7-dihydro-5H-pyrrolo[1,2-c]imidazol-1-yl)-2-[6-[4-[2-[2-[1-[4-(2,4-dioxohexahydropyrimidin-1-yl)-2-(trifluoromethyl)phenyl]-4-hydroxy-4-piperidyl]acetyl]-2,6-diazaspiro[3.3]heptan-6-yl]phenyl]-4-fluoro-1-oxo-isoindolin-2-yl]-N-thiazol-2-yl-acetamide]", "DC50": "50 to 150"},
      {"smiles": "O=C1CCN(c2cc(Cl)c(N3CCC(O)(CC(=O)N4CC5(C4)CN(c4ccc(-c6cc(F)c7c(c6)C(=O)N(C(C(=O)Nc6nccs6)c6ncn8c6CCC8)C7)cc4)C5)CC3)c(Cl)c2)C(=O)N1", "note": "(stereo not drawn) [Compound 169, 2-[6-[4-[2-[2-[1-[2,6-dichloro-4-(2,4-dioxohexahydropyrimidin-1-yl)phenyl]-4-hydroxy-4-piperidyl]acetyl]-2,6-diazaspiro[3.3]heptan-6-yl]phenyl]-4-fluoro-1-oxo-isoindolin-2-yl]-2-(6,7-dihydro-5H-pyrrolo[1,2-c]imidazol-1-yl)-N-thiazol-2-yl-acetamide]", "DC50": "< 50"},
      {"smiles": "O=C1CCN(c2ccc(N3CCC(O)(CC(=O)N4CCC5(CC4)CN(c4ccc(-c6cc(F)c7c(c6)C(=O)N(C(C(=O)Nc6nccs6)c6ncn8c6CCC8)C7)cc4)C5)CC3)c(Cl)c2)C(=O)N1", "note": "(stereo not drawn) [Compound 170, 2-[6-[4-[7-[2-[1-[2-chloro-4-(2,4-dioxohexahydropyrimidin-1-yl)phenyl]-4-hydroxy-4-piperidyl]acetyl]-2,7-diazaspiro[3.5]nonan-2-yl]phenyl]-4-fluoro-1-oxo-isoindolin-2-yl]-2-(6,7-dihydro-5H-pyrrolo[1,2-c]imidazol-1-yl)-N-thiazol-2-yl-acetamide]", "DC50": "< 50"},
      {"smiles": "N#Cc1cc(N2CCC(=O)NC2=O)ccc1N1CCC(O)(CC(=O)N2CC3(C2)CN(c2ccc(-c4cc(F)c5c(c4)C(=O)N(C(C(=O)Nc4nccs4)c4ncn6c4CCC6)C5)cc2)C3)CC1", "note": "(stereo not drawn) [Compound 171, 2-[6-[4-[2-[2-[1-[2-cyano-4-(2,4-dioxohexahydropyrimidin-1-yl)phenyl]-4-hydroxy-4-piperidyl]acetyl]-2,6-diazaspiro[3.3]heptan-6-yl]phenyl]-4-fluoro-1-oxo-isoindolin-2-yl]-2-(6,7-dihydro-5H-pyrrolo[1,2-c]imidazol-1-yl)-N-thiazol-2-yl-acetamide]", "DC50": "> 150"},
      {"smiles": "O=C1CCN(c2ccc(N3CCC(O)(CC(=O)N4CC5(CCN(c6ccc(-c7cc(F)c8c(c7)C(=O)N(C(C(=O)Nc7nccs7)c7ncn9c7CCC9)C8)cc6)CC5)C4)CC3)c(Cl)c2)C(=O)N1", "note": "(stereo not drawn) [Compound 172, 2-[6-[4-[2-[2-[1-[2-chloro-4-(2,4-dioxohexahydropyrimidin-1-yl)phenyl]-4-hydroxy-4-piperidyl]acetyl]-2,7-diazaspiro[3.5]nonan-7-yl]phenyl]-4-fluoro-1-oxo-isoindolin-2-yl]-2-(6,7-dihydro-5H-pyrrolo[1,2-c]imidazol-1-yl)-N-thiazol-2-yl-acetamide]", "DC50": "< 50"},
      {"smiles": "Cn1nc(N2CCC(=O)NC2=O)c2ccc(C3CCN(CC(=O)N4CCC5(CC4)CN(c4ccc(-c6cc(F)c7c(c6)C(=O)N(C(C(=O)Nc6nccs6)c6ncn8c6CCC8)C7)cc4)C5)CC3(F)F)cc21", "note": "(stereo not drawn) [Compound 174]", "DC50": "< 50"}
    ]}
  ]
}
